In patent US4098891A, “Certain s-triazines as lipogenesis inhibitors” (Shell Oil Company, priority 1977, dated 1978):

Columns and labels:
swine adipose tissue = test: Inhibition of lipogenesis (lipid synthesis from glucose-U-14C) in slices of swine adipose tissue in vitro; format: cell-based; conditions: Sus scrofa, 100 micrograms per milliliter, 2 hours at 37° C, 5% DMSO, read-out: Percent Inhibition of lipogenesis (lipid synthesis) compared to control
Source text: The manner in which they cause this effect is not known with certainty; it is believed that they interfere with the synthesis of fatty acids in the tissues. Their effectiveness for this purpose has been ascertained in one series of tests by immersing samples of swine adipose tissue in a liquid medium containing radioactive glucose and the test chemical, for a period of time, then isolating the lipid from the treated tissue and determining the up-take of the radioactive carbon by means of scintillation counting techniques. These tests were conducted in swine adipose tissue because in swine, the primary site of lipogenesis--i.e., fatty acid synthesis--appears to be adipose tissue.
Described in more detail, the tests were conducted according to the following general procedure:
150 Milligrams of slices of swine adipose tissue were incubated at 37° C for 2 hours with shaking in 3 milliliters of Krebs-Ringer bicarbonate solution containing one half the normal calcium ion concentration, 60 micromoles of glucose, 0.5 micro-Curie of glucose-U^14 C, 300 microunits of insulin, and 5% dimethyl sulfoxide (DMSO). The test compounds were added as suspensions or solutions in DMSO and were present at a concentration of 100 micrograms per milliliter of the incubation mixture.
The incubation was terminated by addition of 0.25 milliliter of 1 N sulfuric acid. The resulting mixture was extracted with a total of 25 milliliters of chloroform:methanol (2:1, v/v). The extracts were washed according to Folch et al. (J. Biol. Chem., 226, 497-509, (1957)), air dried, and counted in a liquid scintillation counter with 15 milliliters of counting fluid (two parts toluene containing 0.4% w/v New England Nuclear Omnifluor; 1 part Triton X-100. The tests were conducted in triplicate and were accompanied by control tests in which all ingredients,proportions and conditions were the same except that no test compound was included. From the data obtained were calculated the percent inhibition of lipid synthesis by the test compound in each case. The data obtained from the tests are set out in Table 1, as the percent inhibition of lipogenesis compared to the results obtained in the control tests wherein only the test compound was omitted.

[1] = tested on: whole epididymal fat pads; test: Inhibition of incorporation of acetate-1-14C into long chain fatty acids in rat epididymal fat pads; format: cell-based, Sprague-Dawley rats; conditions: for inhibition at 100 µM: 1 h, 10^-4 M, 60 minutes, acetate-1-14C, read-out: Percent Inhibition of incorporation of acetate into long chain fatty acids
Experimental: The effect of Compounds 1, 15, 19, 20, 21, 22 and 33 on rats was determined by a modification of the method of D. D. Feller, J. Biol. Chem., 206, 171 (1954): whole epididymal fat pads from 110-150 gram Sprague-Dawley rats were incubated in 4 milliliters of Krebs-Ringer bicarbonate buffer for 30 minutes in an atmosphere of 95% O2 -5% CO2. At the end of the 30 minute period 1 milliliter of Krebs-Ringer bicarbonate buffer containing 8.2 micromoles of acetate (0.1 microcuries of acetate-1-^14 C), 55.0 micromoles of glucose and 50.0 micromoles of succinic acid was added to the incubating mixture and the incubation was continued for 60 minutes more. Test compounds were dissolved in dimethyl sulfoxide (DMSO) and added to the incubating mixture with the fat pad. […] The concentration of the test compound in the liquid medium was 10^-4 M. The incubation was carried out with paired fat pads; the contralateral fat pad from the same rat served as the untreated control.
After incubation, the fat pads were washed in two 5 milliliter aliquots of normal saline and extracted twice with 20 milliliters of chloroform:methanol (2:1) by vigorous shaking for 60 minutes. The extracts were combined and brought to volume with fresh organic solvent in a 50 milliliter volumetric flask containing 1 milliliter of 3N hydrochloric acid. A 5 milliliter aliquot of this mixture was transferred into a 20 milliliter scintillator vial and evaporated to dryness (50° C) to remove traces of acetic acid. To the vials were added 17 ml of scintillator solution consisting of 0.3% diphenyloxazole and 0.01% of 1,4-bis(2,5-phenyloxazolyl)benzene in a solvent of 23% ethanol in toluene. Radioactivity was measured by liquid scintillation counting.
Table II indicates the percent inhibition of incorporation of the acetate into long chain fatty acids--a measure of inhibition of lipogenesis.

rats = test: Rats fed Compound 1 in the diet; lipogenesis by weighing fat pads; format: in vivo; conditions: Compound 1 in diet, compared to control rats
swine = test: In vivo test in young, growing pigs fed Compound 1; lipogenesis in adipose tissue biopsy slices; conditions: in feed, approximately 50 mg/kg body weight per day for seven days
Experimental: The effect of compound 1 on inhibition of lipogenesis in swine was confirmed by an in vivo test in which Compound 1 was included in the feed given to young, growing pigs for seven days, at a dosage of approximately 50 milligrams of Compound 1 per kilogram of the pig's body weight per day. Adipose tissue biopsy samples were taken at days 0, 6, 7 and 13 (one week off the drug) and the effect of the test compound on lipogenesis was determined using tissue slices prepared from the biopsy samples, by the procedure used in the in vitro tests.

## CC(O)CNc1nc(N2CCN(C(=O)Nc3ccccc3)CC2)nc(C(Cl)(Cl)Cl)n1 (stereo not shown) [Compound 12]
Swine adipose tissue
  inhibition at 100 µg/mL: 29%

## CN1CCN(c2nc(NCCO)nc(C(Cl)(Cl)Cl)n2)CC1 [Compound 20]
Swine adipose tissue
  inhibition at 100 µg/mL: 27%
[1]
  inhibition at 100 µM: 56%

## CN(CCO)c1nc(N2CCOCC2)nc(C(Cl)(Cl)Cl)n1 [Compound 7]
Swine adipose tissue
  inhibition at 100 µg/mL: 32%

## COCCCNc1nc(NCCO)nc(C(Cl)(Cl)Cl)n1 [Compound 5]
Swine adipose tissue
  inhibition at 100 µg/mL: 44%

## CCNc1nc(N2CCCCC2)nc(C(Cl)(Cl)Cl)n1 [Compound 33]
[1]
  inhibition at 100 µM: 31%

## OCCCNc1nc(N2CCOCC2)nc(C(Cl)(Cl)Cl)n1 [Compound 2]
Swine adipose tissue
  inhibition at 100 µg/mL: 59%

## CN(CCO)c1nc(NCCO)nc(C(Cl)(Cl)Cl)n1 [Compound 8]
Swine adipose tissue
  inhibition at 100 µg/mL: 58%

## CC(O)CNc1nc(N2CCN(C(=O)CCC(=O)O)CC2)nc(C(Cl)(Cl)Cl)n1 (stereo not shown) [Compound 13]
Swine adipose tissue
  inhibition at 100 µg/mL: 21%
[1]; same procedure as Table II
  inhibition of acetate incorporation (in words): not to inhibit acetate incorporation

## CC(C)(CO)Nc1nc(NCCCN2CCOCC2)nc(C(Cl)(Cl)Cl)n1 [Compound 17]
Swine adipose tissue
  inhibition at 100 µg/mL: 43%

## OCCNc1nc(N2CCCC2)nc(C(Cl)(Cl)Cl)n1 [Compound 18]
Swine adipose tissue
  inhibition at 100 µg/mL: 63%

## CC(O)CNc1nc(N2CCOCC2)nc(C(Cl)(Cl)Cl)n1 (stereo not shown) [Compound 4]
Swine adipose tissue
  inhibition at 100 µg/mL: 44%

## OCCNc1nc(N2CCOCC2)nc(C(Cl)(Cl)Cl)n1 [Compound 1]
rats
  inhibition of lipogenesis, by weighing fat pads on sacrifice: lipogenesis had been inhibited to a significant extent
swine
  symptom of toxicity: No symptom of toxicity due to the test compound was noted
swine; day 13 (one week off the drug)
  effect on lipogenesis in adipose tissue biopsy samples: significantly reduced lipogenesis
Swine adipose tissue
  inhibition at 100 µg/mL: 63%
[1]
  inhibition at 100 µM: 57%

## CC(C)OCCCNc1nc(N(CCO)CCO)nc(C(Cl)(Cl)Cl)n1 [Compound 6]
Swine adipose tissue
  inhibition at 100 µg/mL: 62%

## CN(C)C(=O)OCCNc1nc(N2CCOCC2)nc(C(Cl)(Cl)Cl)n1 [Compound 9]
Swine adipose tissue
  inhibition at 100 µg/mL: 65%

## CCNc1nc(NCCC(=O)N2CCOCC2)nc(C(Cl)(Cl)Cl)n1 [Compound 16]
Swine adipose tissue
  inhibition at 100 µg/mL: 38%

## CC(=O)NCCNc1nc(N2CCOCC2)nc(C(Cl)(Cl)Cl)n1 [Compound 14]
Swine adipose tissue
  inhibition at 100 µg/mL: 66%

## COC(=O)CCC(=O)OCCNc1nc(N2CCOCC2)nc(C(Cl)(Cl)Cl)n1 [Compound 10]
Swine adipose tissue
  inhibition at 100 µg/mL: 43%

## O=C(O)CCNc1nc(N2CCOCC2)nc(C(Cl)(Cl)Cl)n1 [Compound 15]
Swine adipose tissue
  inhibition at 100 µg/mL: 44%
[1]
  inhibition at 100 µM: 29%

## OCCNc1nc(N2CCNCC2)nc(C(Cl)(Cl)Cl)n1 [Compound 21]
[1]
  inhibition at 100 µM: 65%

## CC(=O)N1CCN(c2nc(NCC(C)O)nc(C(Cl)(Cl)Cl)n2)CC1 (stereo not shown) [Compound 11]
Swine adipose tissue
  inhibition at 100 µg/mL: 72%

## CC(=O)OCCNc1nc(N2CCOCC2)nc(C(Cl)(Cl)Cl)n1 [Compound 3]
Swine adipose tissue
  inhibition at 100 µg/mL: 33%

## CC(O)CNc1nc(N2CCNCC2)nc(C(Cl)(Cl)Cl)n1 (stereo not shown) [Compound 22]
[1]
  inhibition at 100 µM: 30%

## O=C(NCCO)N1CCN(c2nc(NCCO)nc(C(Cl)(Cl)Cl)n2)CC1 [Compound 19]
Swine adipose tissue
  inhibition at 100 µg/mL: 75%
[1]
  inhibition at 100 µM: 44%
